# Test results published in ChEMBL document CHEMBL1125386, “Small atrial natriuretic peptide analogues: design, synthesis, and structural requirements for guanylate cyclase activation” (J Med Chem, 1992).
# Test system: Atrial natriuretic peptide receptor 1 (Oryctolagus cuniculus)
# Assay: Binding affinity towards the low-affinity site atrionatriuretic peptide receptor 1 of rabbit adrenal membrane
row,KL [nM],SMILES
1,280,CC[C@H](C)[C@@H]1NC(=O)[C@@H](CCCN=C(N)N)NC(=O)CNC(=O)CNC(=O)[C@@H](C2CCCCC2)NC(=O)[C@H](NC(=O)[C@H](N)CCCN=C(N)N)CSSC[C@H](C(=O)O)NC(=O)[C@@H](CCCN=C(N)N)NC(=O)[C@H](C)NC(=O)[C@@H]([C@@H](C)CC)NC(=O)[C@H](CCCN=C(N)N)NC(=O)[C@@H](CC(=O)O)NC1=O
2,150,CC[C@H](C)[C@@H]1NC(=O)[C@@H](CCCCN)NC(=O)CNC(=O)CNC(=O)[C@@H](C2CCCCC2)NC(=O)CCSSC[C@H](C(N)=O)NC(=O)[C@@H](CCCN=C(N)N)NC(=O)[C@H](Cc2ccccc2)NC(=O)[C@@H]([C@@H](C)CC)NC(=O)[C@H](CCCN=C(N)N)NC(=O)[C@@H](CC(=O)O)NC1=O
3,200,CC[C@H](C)[C@@H]1NC(=O)[C@@H](CCCN=C(N)N)NC(=O)[C@@H](C)NC(=O)[C@@H](C)NC(=O)[C@@H](C2CCCCC2)NC(=O)[C@H](NC(=O)[C@H](N)CCCN=C(N)N)CSSC[C@H](C(N)=O)NC(=O)[C@@H](CCCN=C(N)N)NC(=O)[C@H](Cc2ccccc2)NC(=O)[C@@H]([C@@H](C)CC)NC(=O)[C@H](CCCN=C(N)N)NC(=O)[C@@H](CC(=O)O)NC1=O
4,460,CC[C@H](C)[C@@H]1NC(=O)[C@@H](CCCN=C(N)N)NC(=O)CNC(=O)CNC(=O)[C@@H](C2CCCCC2)NC(=O)[C@H](NC(=O)[C@H](N)CCCN=C(N)N)CSSC[C@H](C(=O)O)NC(=O)[C@@H](CCCN=C(N)N)NC(=O)[C@H](Cc2ccccc2)NC(=O)[C@@H]([C@@H](C)CC)NC(=O)[C@H](CCCN=C(N)N)NC(=O)[C@@H](CC(=O)O)NC1=O
5,240,CC[C@H](C)[C@@H]1NC(=O)[C@@H](CCCN=C(N)N)NC(=O)CNC(=O)CNC(=O)[C@@H](Cc2ccccc2)NC(=O)C(C)NC(=O)[C@H](NC(=O)[C@@H](N)CCCN=C(N)N)CSSC[C@H](C(=O)N[C@H](Cc2ccccc2)C(=O)N[C@H](CCCN=C(N)N)C(=O)O)NC(=O)[C@@H]([C@@H](C)CC)NC(=O)[C@H](CCCN=C(N)N)NC(=O)[C@@H](CC(=O)O)NC1=O (stereo in doubt)
6,8900,CC[C@H](C)[C@@H]1NC(=O)[C@@H](CCCN=C(N)N)NC(=O)CNC(=O)CNC(=O)[C@@H](C2CCCCC2)NC(=O)[C@H](N)CSSC[C@H](C(N)=O)NC(=O)[C@@H](CCCN=C(N)N)NC(=O)[C@H](Cc2ccccc2)NC(=O)[C@@H]([C@@H](C)CC)NC(=O)[C@H](C)NC(=O)[C@@H](CC(=O)O)NC1=O
7,390,CC[C@H](C)[C@@H]1NC(=O)[C@@H](CCCN=C(N)N)NC(=O)CNC(=O)CNC(=O)[C@@H](Cc2ccccc2)NC(=O)C(C)NC(=O)[C@H](NC(=O)[C@@H](N)CCCCN)CSSC[C@H](C(=O)N[C@H](Cc2ccccc2)C(=O)N[C@H](CCCN=C(N)N)C(=O)O)NC(=O)[C@@H]([C@@H](C)CC)NC(=O)[C@H](CCCN=C(N)N)NC(=O)[C@@H](CC(=O)O)NC1=O (stereo in doubt)
8,540,CC[C@H](C)[C@@H]1NC(=O)[C@H](CCCN=C(N)N)NC(=O)[C@@H](CC(=O)O)NC(=O)[C@H]([C@@H](C)CC)NC(=O)[C@@H](CCCN=C(N)N)NC(=O)CNC(=O)CNC(=O)[C@@H](Cc2ccccc2)NC(=O)C(C)NC(=O)[C@@H](NC(=O)[C@H](CO)NC(=O)[C@@H](N)CO)CSSC[C@@H](C(=O)N2C[C@@H](C(=O)N[C@H](CCCN=C(N)N)C(=O)O)Cc3ccccc32)NC1=O (stereo in doubt)
9,7100,CC[C@H](C)[C@@H]1NC(=O)[C@@H](CCCN=C(N)N)NC(=O)CNC(=O)CNC(=O)[C@@H](Cc2ccccc2)NC(=O)[C@@H](C)NC(=O)[C@H](NC(=O)[C@H](CO)NC(=O)[C@@H](N)CO)CSSC[C@H](C(=O)N[C@H](Cc2ccccc2)C(=O)N[C@H](CCCN=C(N)N)C(=O)O)NC(=O)[C@@H]([C@@H](C)CC)NC(=O)[C@H](C)NC(=O)[C@@H](CC(=O)O)NC1=O
10,960,CC[C@H](C)[C@@H]1NC(=O)[C@@H](CCCN=C(N)N)NC(=O)CNC(=O)CNC(=O)[C@@H](Cc2ccccc2)NC(=O)C(C)NC(=O)[C@H](NC(=O)[C@H](CO)NC(=O)[C@@H](N)CO)CSSC[C@H](C(=O)N2CC(C(=O)N[C@H](CCCN=C(N)N)C(=O)O)Cc3ccccc32)NC(=O)[C@@H]([C@@H](C)CC)NC(=O)[C@H](CCCN=C(N)N)NC(=O)[C@@H](CC(=O)O)NC1=O (stereo in doubt)
11,1000,CC[C@H](C)[C@@H]1NC(=O)[C@@H](CCCN=C(N)N)NC(=O)C2CCC(CC2)NC(=O)C2CCC(CC2)NC(=O)[C@@H](Cc2ccccc2)NC(=O)C(C)NC(=O)[C@H](NC(=O)[C@H](CO)NC(=O)[C@@H](N)CO)CSSC[C@H](C(=O)N[C@H](Cc2ccccc2)C(=O)N[C@H](CCCN=C(N)N)C(=O)O)NC(=O)[C@@H]([C@@H](C)CC)NC(=O)[C@H](CCCN=C(N)N)NC(=O)[C@@H](CC(=O)O)NC1=O (stereo in doubt)

row,SMILES,KL [nM]
1,CC[C@H](C)[C@@H]1NC(=O)[C@H](CCCN=C(N)N)NC(=O)[C@@H](CC(=O)O)NC(=O)[C@H]([C@@H](C)CC)NC(=O)[C@H](CCCNC(N)=O)NC(=O)CNC(=O)CNC(=O)[C@@H](Cc2ccccc2)NC(=O)[C@@H](C)NC(=O)[C@@H](NC(=O)[C@H](CO)NC(=O)[C@@H](N)CO)CSSC[C@@H](C(=O)N[C@H](Cc2ccccc2)C(=O)N[C@H](CCCN=C(N)N)C(=O)O)NC1=O,6900
2,CC[C@H](C)[C@@H]1NC(=O)[C@@H](CCCN=C(N)N)NC(=O)CNC(=O)CNC(=O)[C@@H](Cc2ccccc2)NC(=O)CCNC(=O)[C@H](NC(=O)[C@H](CO)NC(=O)[C@@H](N)CO)CSSC[C@H](C(=O)N[C@H](Cc2ccccc2)C(=O)N[C@H](CCCN=C(N)N)C(=O)O)NC(=O)[C@@H]([C@@H](C)CC)NC(=O)[C@H](CCCN=C(N)N)NC(=O)[C@@H](CC(=O)O)NC1=O,6500
3,CC[C@H](C)[C@@H]1NC(=O)[C@@H](CCCN=C(N)N)NC(=O)CNC(=O)CNC(=O)[C@@H](Cc2ccccc2)NC(=O)CNC(=O)[C@H](NC(=O)[C@H](CO)NC(=O)[C@@H](N)CO)CSSC[C@H](C(=O)N[C@H](Cc2ccccc2)C(=O)N[C@H](CCCN=C(N)N)C(=O)O)NC(=O)[C@@H]([C@@H](C)CC)NC(=O)[C@H](CCCN=C(N)N)NC(=O)[C@@H](CC(=O)O)NC1=O,410
4,CC[C@H](C)[C@@H]1NC(=O)[C@@H](CCCN=C(N)N)NC(=O)CNC(=O)CNC(=O)[C@@H](Cc2ccccc2)NC(=O)[C@H](C2CCCCC2)NC(=O)[C@H](NC(=O)[C@H](CO)NC(=O)[C@@H](N)CO)CSSC[C@H](C(=O)N[C@H](Cc2ccccc2)C(=O)N[C@H](CCCN=C(N)N)C(=O)O)NC(=O)[C@@H]([C@@H](C)CC)NC(=O)[C@H](CCCN=C(N)N)NC(=O)[C@@H](CC(=O)O)NC1=O,180
5,CC[C@H](C)[C@@H]1NC(=O)[C@@H](CCCN=C(N)N)NC(=O)CNC(=O)CNC(=O)[C@@H](Cc2ccccc2)NC(=O)[C@H](NC(=O)[C@H](CO)NC(=O)[C@@H](N)CO)CSSC[C@H](C(=O)N[C@H](Cc2ccccc2)C(=O)N[C@H](CCCN=C(N)N)C(=O)O)NC(=O)[C@@H]([C@@H](C)CC)NC(=O)[C@H](CCCN=C(N)N)NC(=O)[C@@H](CC(=O)O)NC1=O,4400
6,CC[C@H](C)[C@@H]1NC(=O)[C@@H](CCCN=C(N)N)NC(=O)CNC(=O)CNC(=O)[C@@H](Cc2ccccc2)NC(=O)[C@H](NC(=O)[C@@H](CO)NC(=O)[C@H](N)CO)CSSC[C@H](C(=O)O)NC(=O)[C@@H](CCCN=C(N)N)NC(=O)[C@H](Cc2ccccc2)NC(=O)[C@@H]([C@@H](C)CC)NC(=O)[C@H](CCCN=C(N)N)NC(=O)[C@@H](CC(=O)O)NC1=O,790
